In patent US20090163481A1, “PPAR-DELTA LIGANDS AND METHODS OF THEIR USE” (priority 2007, published 2009):

Assays:
PPARδ = biological target: T1, PPARδ (Homo sapiens, UniProt Q03181); experiment: PPRE promoter/luciferase reporter (transactivation) assay in U2-OS cells; format: cell-based
T1 construct: expressed in transfected cells; host or cells: U2-OS (human bone cancer line)
T1 sequence (Q03181 1-441): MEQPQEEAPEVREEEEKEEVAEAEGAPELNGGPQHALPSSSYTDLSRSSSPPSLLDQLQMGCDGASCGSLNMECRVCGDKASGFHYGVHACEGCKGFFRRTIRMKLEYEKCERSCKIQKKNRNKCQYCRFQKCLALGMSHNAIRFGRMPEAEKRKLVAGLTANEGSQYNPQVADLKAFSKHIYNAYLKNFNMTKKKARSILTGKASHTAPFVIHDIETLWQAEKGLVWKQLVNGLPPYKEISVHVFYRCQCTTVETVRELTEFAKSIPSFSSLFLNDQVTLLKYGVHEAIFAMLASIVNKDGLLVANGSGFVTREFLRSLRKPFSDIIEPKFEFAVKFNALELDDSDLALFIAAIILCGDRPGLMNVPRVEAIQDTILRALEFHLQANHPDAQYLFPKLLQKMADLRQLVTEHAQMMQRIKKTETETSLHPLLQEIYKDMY
Experimental: (§1) General Testing Procedures. Each ligand was screened for PPARδ binding and transactivation activity through the use of two complementary reporter assays as described below. In both systems, transfection efficiency was standardized by co-transfection of a control Renilla luciferase. U2-OS (human bone cancer line) cells were used for both assays because this is the cell line of choice for screening PPAR ligands. At 18 h post-transfection, GW 501, with and without the ligands of the disclosure, was added to the cells and incubated for an additional 24 h. The cells were then harvested and luciferase activities profiled.
A promoter/luciferase reporter assay. This assay involves co-transfection of a PPARδ expression vector and a plasmid containing a luciferase gene under the control of PPARδ responsive DNA element (three copies of a consensus PPAR response element, PPRE). This assay was used to directly test ligand effects on PPARδ-responsive genes.
(§2) Referring to FIG. 3, U2-OS cells were transiently transfected with appropriate expression and reporter vectors. Ligands were added to the cell cultures 24 h post-transfection and incubated for an additional 16 h. Lipoprotein lipase (LPL; 2 μg/ml) was added with VLDL (5 μg/ml) to release PPARδ-active triglycerides. FIG. 3A: PPARδ LBD/Gal4/UAS-tk-luc competition assays with VLDL SR13904 (0-10 μM). The reporter activation (fold increase over blank) is presented relative to GW501516 at 7 nM (fold increase over blank=100). FIG. 3B: PPRE reporter assays using 0, 1, and 10 μM SR13904+VLDL. All assays were repeated in triplicate.

A549 cultures = experiment: Real time PCR mRNA analysis of CDK2, CDK4, cyclin D1 in A549; format: cell-based, human; conditions: A549, 20 μM, 0.5% FBS, 24 and 48 h
Experimental: Referring now to FIG. 5D, to better define the level of regulation of SR13904 on cell cycle proteins, CDK2, CDK4, and cyclin D1 were selected for mRNA analysis using real time PCR. A549 cultures were treated with SR13904 (20 μM; 0.5% FBS) and sampled at 24- and 48-h time-points. […] For CDK2 the differences (SR13904-treated vs. vehicle control-treated) were significant (*p=0.01-0.05, **p=0.00-0.01). Computational analysis of the proximal human CDK2 promoter identified a number of putative consensus PPREs. None were found within the proximal promoter regions of the CDK4 and cyclin D1 genes. SR13904 may directly affect the transcriptional activity of CDK2 while exerting indirect effects on the expression of the CDK4 and cyclin D1 proteins, perhaps through control over PPARδ-dependent signaling pathways.

A549 cells = experiment: Apoptosis, Cell Death Detection ELISA (DNA fragmentation) in A549 cells; format: cell-based, human; conditions: A549, 0.5% serum, SR13904 15 μM, 40 h
Experimental: Referring now to FIG. 6, SR13904 treatment of cancer cells results in increased apoptosis. A549 cells (2×10^4 cells/well) were incubated in 0.5% media (96 well plates) SR13904 for 40 h. The relative degrees of apoptosis were determined using a Cell Death Detection ELISA (Roche). SR represents SR13904. ***p=<0.001 SR vs. SR+GW501.
SR13904 treatment results in increased apoptosis. Down-regulation of PPARδ, either by genetic knockout or by the treatment with 13-S—HODE (15-lipoxygenase-1 product), induces apoptosis in colorectal cancer cells. The effects of SR13904 (15 μM) GW501 (1 μM) on survival of A549 cells (0.5% serum) was determined. Relative degrees of apoptosis were measured using a DNA fragmentation assay.

LBD of PPARδ protein = biological target: T2, LBD of PPARδ protein (Homo sapiens, UniProt Q03181); experiment: PPARδ ligand-binding domain (LBD)/Gal4 UAS-tk-luciferase reporter assay in U2-OS cells; format: cell-based
T2 construct: co-transfection of a plasmid containing an LBD/Gal4 fusion construct; expressed in transfected cells; host or cells: U2-OS (human bone cancer line)
T2 sequence (Q03181 211-439 limits assumed): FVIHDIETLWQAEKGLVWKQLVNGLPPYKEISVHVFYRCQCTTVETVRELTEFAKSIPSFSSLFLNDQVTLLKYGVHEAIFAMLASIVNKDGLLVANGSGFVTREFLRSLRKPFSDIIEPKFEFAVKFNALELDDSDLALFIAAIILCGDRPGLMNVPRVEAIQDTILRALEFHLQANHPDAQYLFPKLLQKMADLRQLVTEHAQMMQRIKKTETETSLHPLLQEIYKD
Experimental: as §1
A PPARδ protein ligand-binding domain (LBD) assay. The LBD assay consists of cellular co-transfection of a plasmid containing an LBD/Gal4 fusion construct and a vector containing a UAS-tk-luciferase reporter construct under the transcriptional control of a Gal4 upstream activating sequence. This system was used to test for binding activities of candidate PPARδ ligands to the LBD of PPARδ protein.
as §2

PC-3 cells = experiment: Alamar Blue proliferation assay, PC-3; format: cell-based; conditions: Homo sapiens, 96 h; PC-3, 0-40 μM, 0.5% serum, 4 days; read-out: IC50 for growth inhibition
Experimental: The effect of SR13904 on the proliferation of these cell lines was determined by an Alamar Blue assay. Exponentially growing cells were treated with a range of SR13904 concentrations (0-40 μM; in 0.5% serum) over 4 days and proliferation curves were determined. The IC50 values for growth inhibition by SR13904 for each cell line were determined. […] In addition, colony formation assays with SR13904 were performed with both A549 and Huh7 cells.

inhibition of PPARδ-mediated transactivation (PPARδ): appear to inhibit | reporter expression via PPRE in combination with GW 501 (PPARδ; 1 μM ligand): significantly decreased | reporter expression via PPRE in combination with GW 501 (PPARδ; 10 μM ligand): completely inhibited | transcription activation of the PPRE reporter to GW501 (PPARδ; 1 and 10 μM ligand with GW501): completely eliminated | VLDL-related activation of the PPAR promoter element (PPRE) construct (PPARδ; co-treatment with 1 μM): completely block | inhibition of binding of VLDL to PPARδ (LBD of PPARδ protein; SR13904 0-10 μM with VLDL): significantly inhibit | concentrations at which ligand binds LBD of PPARδ, attenuating LBD binding of GW501 (LBD of PPARδ protein; competition with GW501 (7 nM), U2-OS cells): 1 to 10 µM | PPARδ ligand profile (agonist/antagonist) (LBD of PPARδ protein; from GAL-4 binding and PPRE transactivation reporter screens): PPARδ antagonist | IC50 (PC-3 cells): > 30 µM
Compound: Cc1cc(SCc2sc(-c3cccc4ccccc34)nc2C)ccc1OCC(=O)O [SR 13904]
CDK4 or cyclin D1 mRNA levels (A549 cultures): no effect | steady state levels of CDK2 mRNA (A549 cultures): significantly reduced | apoptosis (DNA fragmentation) (A549 cells): significant apoptotic effect
